# What was measured:
# Assay in all cases: relative viability (nuclei count vs DMSO), 5 days (fraction); higher = more cells survive
# [1] = tested on: 201T
# How it was run: (§1)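 One day after seeding in 1536-well plates, lung cancer cell lines were dosed by pin tool. Dosing was either single-drug or a fixed anchor-drug dose plus five library-drug doses (not always all listed) in √10 steps. After 5 days, nuclei were stained in one fix-and-stain step and counted on 4× images, and relative viability is the nuclei count of treated wells over that of vehicle wells, given as the median of duplicate plates.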
# [2] = tested on: COR-L23
# How it was run: as §1
# [3] = tested on: EPLC-272H
# How it was run: as §1
# [4] = tested on: H3255
# How it was run: as §1
# [5] = tested on: HCC-44
# How it was run: as §1
# [6] = tested on: LOU-NH91
# How it was run: as §1
# [7] = tested on: NCI-H1563
# How it was run: as §1
# [8] = tested on: NCI-H1734
# How it was run: as §1
# [9] = tested on: NCI-H1793
# How it was run: as §1
# [10] = tested on: NCI-H1993
# How it was run: as §1
# [11] = tested on: NCI-H2023
# How it was run: as §1
# [12] = tested on: NCI-H2085
# How it was run: as §1
# [13] = tested on: NCI-H2347
# How it was run: as §1
# [14] = tested on: NCI-H2405
# How it was run: as §1
# [15] = tested on: NCI-H3122
# How it was run: as §1
# [16] = tested on: NCI-H441
# How it was run: as §1
# [17] = tested on: NCI-H520
# How it was run: as §1
# [18] = tested on: NCI-H647
# How it was run: as §1
# [19] = tested on: PC-14
# How it was run: as §1
# [20] = tested on: RERF-LC-KJ
# How it was run: as §1
smiles,measurement,setting,value
C=C1C(=O)O[C@@H](CCCCCCCC)[C@@H]1C(=O)O [C-75] + C[C@]1(O)C[C@@H](c2nc(-c3ccc4ccc(-c5ccccc5)nc4c3)c3c(N)nccn32)C1 [Linsitinib] (partner 1 µM),relative viability,[1]; first compound 0.08 µM,1.01
same,relative viability,[1]; first compound 0.253 µM,1.06
same,relative viability,[1]; first compound 0.8 µM,1.1
same,relative viability,[1]; first compound 2.53 µM,1.02
same,relative viability,[1]; first compound 8 µM,1.1
same,relative viability,[2]; first compound 0.08 µM,0.935
same,relative viability,[2]; first compound 0.253 µM,0.907
same,relative viability,[2]; first compound 0.8 µM,0.856
same,relative viability,[2]; first compound 2.53 µM,0.632
same,relative viability,[2]; first compound 8 µM,0.909
same,relative viability,[3]; first compound 0.08 µM,1.05
same,relative viability,[3]; first compound 0.253 µM,1.23
same,relative viability,[3]; first compound 0.8 µM,1.07
same,relative viability,[3]; first compound 2.53 µM,0.976
same,relative viability,[3]; first compound 8 µM,1.11
same,relative viability,[4]; first compound 0.08 µM,0.868
same,relative viability,[4]; first compound 0.253 µM,1.13
same,relative viability,[4]; first compound 0.8 µM,1.01
same,relative viability,[4]; first compound 2.53 µM,0.895
same,relative viability,[4]; first compound 8 µM,1.16
same,relative viability,[5]; first compound 0.08 µM,0.598
same,relative viability,[5]; first compound 0.253 µM,0.633
same,relative viability,[5]; first compound 0.8 µM,0.618
same,relative viability,[5]; first compound 2.53 µM,0.453
same,relative viability,[5]; first compound 8 µM,0.667
same,relative viability,[6]; first compound 0.08 µM,1
same,relative viability,[6]; first compound 0.253 µM,0.82
same,relative viability,[6]; first compound 0.8 µM,0.875
same,relative viability,[6]; first compound 2.53 µM,0.859
same,relative viability,[6]; first compound 8 µM,1.02
same,relative viability,[7]; first compound 0.08 µM,1.24
same,relative viability,[7]; first compound 0.253 µM,1.23
same,relative viability,[7]; first compound 0.8 µM,1.14
same,relative viability,[7]; first compound 2.53 µM,1.28
same,relative viability,[7]; first compound 8 µM,1.18
same,relative viability,[8]; first compound 0.08 µM,0.876
same,relative viability,[8]; first compound 0.253 µM,0.813
same,relative viability,[8]; first compound 0.8 µM,0.804
same,relative viability,[8]; first compound 2.53 µM,0.622
same,relative viability,[8]; first compound 8 µM,0.732
same,relative viability,[9]; first compound 0.08 µM,0.775
same,relative viability,[9]; first compound 0.253 µM,1.18
same,relative viability,[9]; first compound 0.8 µM,0.698
same,relative viability,[9]; first compound 2.53 µM,0.658
same,relative viability,[9]; first compound 8 µM,0.942
same,relative viability,[10]; first compound 0.08 µM,0.705
same,relative viability,[10]; first compound 0.253 µM,0.773
same,relative viability,[10]; first compound 0.8 µM,0.751
same,relative viability,[10]; first compound 2.53 µM,0.744
same,relative viability,[10]; first compound 8 µM,0.763
same,relative viability,[11]; first compound 0.08 µM,0.701
same,relative viability,[11]; first compound 0.253 µM,0.824
same,relative viability,[11]; first compound 0.8 µM,0.473
same,relative viability,[11]; first compound 2.53 µM,0.658
same,relative viability,[11]; first compound 8 µM,0.753
same,relative viability,[12]; first compound 0.08 µM,0.935
same,relative viability,[12]; first compound 0.253 µM,0.801
same,relative viability,[12]; first compound 0.8 µM,0.88
same,relative viability,[12]; first compound 2.53 µM,0.806
same,relative viability,[12]; first compound 8 µM,0.792
same,relative viability,[13]; first compound 0.08 µM,1.01
same,relative viability,[13]; first compound 0.253 µM,0.959
same,relative viability,[13]; first compound 0.8 µM,0.598
same,relative viability,[13]; first compound 2.53 µM,0.88
same,relative viability,[13]; first compound 8 µM,1.07
same,relative viability,[14]; first compound 0.08 µM,0.882
same,relative viability,[14]; first compound 0.253 µM,0.728
same,relative viability,[14]; first compound 0.8 µM,0.872
same,relative viability,[14]; first compound 2.53 µM,0.967
same,relative viability,[14]; first compound 8 µM,0.989
same,relative viability,[15]; first compound 0.08 µM,1.02
same,relative viability,[15]; first compound 0.253 µM,1.06
same,relative viability,[15]; first compound 0.8 µM,1.04
same,relative viability,[15]; first compound 8 µM,1.1
same,relative viability,[16]; first compound 0.08 µM,0.476
same,relative viability,[16]; first compound 0.253 µM,0.592
same,relative viability,[16]; first compound 0.8 µM,0.373
same,relative viability,[16]; first compound 2.53 µM,0.48
same,relative viability,[16]; first compound 8 µM,0.442
same,relative viability,[17]; first compound 0.08 µM,1.1
same,relative viability,[17]; first compound 0.253 µM,1.28
same,relative viability,[17]; first compound 0.8 µM,0.904
same,relative viability,[17]; first compound 2.53 µM,0.906
same,relative viability,[17]; first compound 8 µM,0.825
same,relative viability,[18]; first compound 0.08 µM,1.18
same,relative viability,[18]; first compound 0.253 µM,1.31
same,relative viability,[18]; first compound 2.53 µM,0.903
same,relative viability,[18]; first compound 8 µM,0.823
same,relative viability,[19]; first compound 0.08 µM,0.956
same,relative viability,[19]; first compound 0.253 µM,0.818
same,relative viability,[19]; first compound 0.8 µM,1.03
same,relative viability,[19]; first compound 2.53 µM,0.778
same,relative viability,[19]; first compound 8 µM,0.939
same,relative viability,[20]; first compound 0.08 µM,0.912
same,relative viability,[20]; first compound 0.253 µM,0.994
same,relative viability,[20]; first compound 0.8 µM,0.827
same,relative viability,[20]; first compound 2.53 µM,0.739
same,relative viability,[20]; first compound 8 µM,0.971

# Source: the supplement of paper PMC10307832
